From article PMC8429736, “Pharmacological characterization of mutant huntingtin aggregate-directed PET imaging tracer candidates” (Scientific Reports, 2021)
Where two headings read alike, the source gives them in different places.

Key:
[1] = ARG, human post-mortem CTRL frontal cortex sections; assay type: binding
[2] = test system: mHTT aggregates in zQ175 brain homogenates; test: RAFTA with zQ175 brain homogenates; assay type: binding, mouse
Experimental: For RAFTA and MSD assays, mouse brains were transferred to lysis tubes and individually homogenized 1:3 (w/v) in brain lysis buffer (10 mM Tris pH 7.4, 800 mM NaCl, 1 mM EDTA, 1 × Protease inhibitor, 10% Sucrose, 0.5% Triton X-100, Benzonase (1:1000)) using a pre-cooled MP FastPrep homogenizer (3 × 30 s, 6.0 m/sec). Crude homogenates were transferred to LoBind reaction tubes (Eppendorf) and centrifuged at 15,700×g for 10 min at 4 °C. The supernatant was collected, and the pellet fraction was resuspended in brain lysis buffer. Generally, a minimum of three whole brains were lysed and fractions were pooled after homogenization to reduce assay variability due to inter-animal variability.
The total protein concentration of samples was determined by BCA assay (ThermoFisher Scientific, #23227), according to standard procedures and protein concentrations were adjusted to 5–10 mg/mL in brain lysis buffer. […]
For RAFTA analysis, frozen mouse brain homogenates were thawed on the day of the experiment and diluted with assay buffer (50 mM Tris pH 8.0; 150 mM NaCl) to a concentration of 500 µg/mL total protein. […] In experiments where non-specific binding (NSB) was determined, the incubation medium contained 5 µM of non-labeled (cold) CHDI-180, which was added prior to the addition of radioligand and incubated for 20 min at room temperature. […]

[3] = test system: R6/2 brain homogenates; test: RBA with R6/2 brain homogenates; assay type: binding, mouse; details: data not shown
Experimental: (§1) For RBA in vitro binding assays, brain tissue was sliced (50 µm), weighed and homogenized in PBS (Gibco, 14190-94), 0.1% BSA with a glass pestle (10 strokes) at a concentration of 12–15 mg wet tissue per mL buffer. The crude homogenate concentration was then adjusted to 10 mg/mL (wet tissue) and stored as single-use aliquots at -80 °C.
For saturation binding experiments, aggregate lysate preparation and final concentration in the assay, assay buffer, incubation times and plate processing were identical to the competition format. Radioligand was titrated up to 100 nM. Raw cpm were converted into nM using a calibration line of total added radioligand without washing and filtering (spiked onto the filter plate and dried) (e.g., X) and normalized to the concentration of protein (e.g., Y) to finally obtain […] (e.g., X/Y). Specific binding (SB) was calculated as full binding minus full competition (in the presence of excess unlabeled ligand) and a hyperbolic mono-phasic fit was applied using GraphPad Prism to determine Kd and Bmax.

[4] = molecular target: beta amyloid plaques in human AD brain sections (Homo sapiens, UniProt P05067); test: ARG, human post-mortem AD frontal cortex sections; assay type: binding; details: 1 nM radioligand
Sequence of beta amyloid plaques in human AD brain sections (P05067 672-713 limits assumed): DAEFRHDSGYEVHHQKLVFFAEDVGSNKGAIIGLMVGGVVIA

[5] = test system: beta amyloid/tau aggregates in post-mortem AD patient brain homogenates; test: ADbh RBA competition format; assay type: binding, human; details: radioligand 4; compound 1 µM
Experimental: as §1
RBA experiments using Alzheimer’s disease brain homogenates (ADbh RBA) followed the same assay principle as the RBA with recombinant HTT protein, using 0.68 mg/mL homogenate (100 µg per well with 150 µL assay volume) in assay buffer PBS, 0.01% Pluronic F127 (Sigma. P2443) and 1% DMSO after compound addition. […] Incubation at room temperature was conducted for 20 min after compound addition and for 5 h after radioligand addition. For the competition format, raw cpm were normalized towards assay controls as before, to obtain inhibition between 0 and 100%. For saturation binding, raw cpm were converted into nM as before, using a calibration line of total added radioligand, and normalized to mg of added homogenate to finally obtain pmol/mg.

[6] = molecular target: T1, Exon1-Q46 aggregates (Homo sapiens, UniProt P42858, INS38QQQQQQQQQQQQQQQQQQQQQQQQQ); test: RBA competition binding against tritiated 3, Exon1-Q46 aggregates
T1 construct: MBP-HTT(1-89)Q46-His(6x); MBP (N, cleaved yes); made in house; host or cells: E. coli BL21 (DE3)
T1 sequence (P42858 with tags, fused parts or gaps with the stated changes): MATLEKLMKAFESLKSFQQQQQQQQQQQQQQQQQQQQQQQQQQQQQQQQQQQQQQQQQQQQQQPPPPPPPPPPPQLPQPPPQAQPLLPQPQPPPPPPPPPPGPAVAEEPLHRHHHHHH
Experimental: For the competition assay format, Q46 or Exon1-Q46 aggregates at 1 µM (sample volume 150 µL) were pre-incubated in a 96-well round bottom plate (Corning, #3365) for 20 min with test compounds at room temperature (assay buffer 50 mM Tris–HCl pH 8.0, 150 mM NaCl). […] Radioligand 3 at 0.3 nM was added and incubated for 1 h at 37 °C.
Samples were then transferred onto a 96-well GF/B filter plate (Perkin Elmer, #6005177) using a Filtermate Harvester, aspirated by vacuum and wells washed twice with 200 µL PBS. After drying the filter plates for 1 h at 55 °C the back of the plate was sealed with aluminum cover and 30 µL of scintillation fluid (Perkin Elmer, #6013641) per well was added. The tops of the plates were sealed, and the plates were incubated for 15 min in the dark and counted in a TopCount or MicroBeta2 reader (both Perkin Elmer).
Raw sample data collected as counts per minute (cpm) were normalized towards assay controls: 0% inhibition = radioligand + protein + vehicle, 100% inhibition = radioligand + protein + 1 µM unlabeled ligand. A 4-parameter […] fit was applied to generate IC50 values.

COc1ccc(COc2ccc3oc(-c4ccc(=O)n(C)n4)nc3c2)nc1 [CHDI-180]
NSB in CTRL brain sections ([1]; 1 nM radioligand plus cold compound): below 0.5 fmol/mg tissue | binding to frontal cortical sections, CTRL tissue ([1]; 1 nM radioligand, gray matter): 0.8 ± 0.3 fmol/mg tissue | signal in pelleted material vs age-matched WT mice ([2]; 3 nM radioligand, cortices, striata or hippocampi of 9-month-old HET zQ175): > tenfold | binding in brain homogenates with age ([2]; 3-, 6-, 9-, 12-month-old HOM zQ175): age-dependent increase | binding signal [3]: no appropriate binding signal | binding in AD post-mortem brain tissues [4]: 5.6 ± 0.7 fmol/mg | binding in AD post-mortem brain tissues ([4]; gray matter): 5.6 ± 0.7 fmol/mg tissue | inhibition at 1 µM [5]: ~ 50% | IC50 ([6]; 0.3 nM tritiated 3 as radioligand, 1 µM aggregates, mean ± SD, read-out: IC50 Exon1-Q46): 1.3 ± 0.7 nM | Hill Slope ([6]; against tritiated 3, representative single experiment (Fig. 2B)): 0.89 | IC50 ([6]; against tritiated 3, representative single experiment (Fig. 2B), read-out: IC50): 1.4 nM
